ChEMBL document CHEMBL3994655, “Methylsulfonyl benzothiazoles (MSBT) derivatives: Search for new potential antimicrobial and anticancer agents” (2017)
≈ marks a conversion by molar mass, not a printed value. Structures can show the parent of a compound that is named as a salt.

What was measured:
Staphylococcus aureus [1] = experiment: Antibacterial activity against Staphylococcus aureus 209P assessed as zone of inhibition at 5 mg/ml by agar well diffusion method; type: functional; conditions: read-out: DIZ
Escherichia coli [2] = experiment: Antibacterial activity against Escherichia coli ATCC 35421 assessed as zone of inhibition at 5 mg/ml by agar well diffusion method; type: functional; conditions: read-out: DIZ
Candida albicans [3] = experiment: Antifungal activity against Candida albicans A01 assessed as zone of inhibition at 5 mg/ml by agar well diffusion method; type: functional; conditions: read-out: DIZ
Staphylococcus aureus [4] = experiment: Antibacterial activity against Staphylococcus aureus 209P assessed as zone of inhibition at 1 mg/ml by agar well diffusion method; type: functional; conditions: read-out: DIZ
Escherichia coli [5] = experiment: Antibacterial activity against Escherichia coli ATCC 35421 assessed as zone of inhibition at 1 mg/ml by agar well diffusion method; type: functional; conditions: read-out: DIZ
Candida albicans [6] = experiment: Antifungal activity against Candida albicans A01 assessed as zone of inhibition at 1 mg/ml by agar well diffusion method; type: functional; conditions: read-out: DIZ
HeLa [7] = experiment: Cytotoxicity against human HeLa cells assessed as cell growth at 10^-7 M after 48 hrs by SRB assay relative to control; type: functional; conditions: read-out: Activity
HeLa [8] = experiment: Cytotoxicity against human HeLa cells assessed as cell growth at 10^-6 M after 48 hrs by SRB assay relative to control; type: functional; conditions: read-out: Activity
HeLa [9] = experiment: Cytotoxicity against human HeLa cells assessed as cell growth at 10^-5 M after 48 hrs by SRB assay relative to control; type: functional; conditions: read-out: Activity
HeLa [10] = experiment: Cytotoxicity against human HeLa cells assessed as cell growth at 10^-4 M after 48 hrs by SRB assay relative to control; type: functional; conditions: read-out: Activity
HeLa [11] = experiment: Growth inhibition of human HeLa cells after 48 hrs by SRB assay; type: functional
HeLa [12] = experiment: Cytotoxicity against human HeLa cells assessed as reduction in cell viability after 48 hrs by SRB assay; type: functional, cell-based
Escherichia coli [13] = experiment: Antibacterial activity against Escherichia coli ATCC 35421 after 24 to 48 hrs by macro-broth dilution method; type: functional
Escherichia coli [14] = experiment: Antibacterial activity against Escherichia coli ATCC 20732 after 24 to 48 hrs by macro-broth dilution method; type: functional
Pseudomonas aeruginosa = experiment: Antibacterial activity against Pseudomonas aeruginosa M5 after 24 to 48 hrs by macro-broth dilution method; type: functional
Staphylococcus aureus [15] = experiment: Antibacterial activity against Staphylococcus aureus 209P after 24 to 48 hrs by macro-broth dilution method; type: functional
Staphylococcus aureus [16] = experiment: Antibacterial activity against methicillin-resistant Staphylococcus aureus 3710 after 24 to 48 hrs by macro-broth dilution method; type: functional
Staphylococcus aureus [17] = experiment: Antibacterial activity against methicillin-resistant Staphylococcus aureus ATCC 33591 after 24 to 48 hrs by macro-broth dilution method; type: functional
[18] = tested on: Staphylococcus epidermidis; experiment: Antibacterial activity against Staphylococcus epidermidis 209E after 24 to 48 hrs by macro-broth dilution method; type: functional

| Compound | zone of inhibition at 5000 µg/mL (Staphylococcus aureus [1]) [mm] | zone of inhibition at 5000 µg/mL (Escherichia coli [2]) [mm] | zone of inhibition at 5000 µg/mL (Candida albicans [3]) [mm] | zone of inhibition at 1000 µg/mL (Staphylococcus aureus [4]) [mm] | zone of inhibition at 1000 µg/mL (Escherichia coli [5]) [mm] | zone of inhibition at 1000 µg/mL (Candida albicans [6]) [mm] | other results |
| --- | --- | --- | --- | --- | --- | --- | --- |
| CCOc1ccc2sc(S(C)(=O)=O)nc2c1S(=O)(=O)N1CCO[C@H](COc2ccccc2)C1 | 9 | ≤ 7 | ≤ 7 | ≤ 7 | ≤ 7 | ≤ 7 | – |
| CCOc1ccc2sc(S(C)(=O)=O)nc2c1NC(=O)CCl | ≤ 7 | ≤ 7 | ≤ 7 | ≤ 7 | ≤ 7 | ≤ 7 | – |
| CCOc1ccc2sc(S(C)(=O)=O)nc2c1S(=O)(=O)NC | ≤ 7 | ≤ 7 | ≤ 7 | ≤ 7 | ≤ 7 | ≤ 7 | – |
| CS(=O)(=O)c1nc2cc(OCc3ccc(OCc4ccccc4)cc3)ccc2s1 | ≤ 7 | ≤ 7 | ≤ 7 | ≤ 7 | ≤ 7 | ≤ 7 | – |
| CCOc1ccc2sc(S(C)(=O)=O)nc2c1NC(=O)CNCN1CCCC1 | ≤ 7 | ≤ 7 | ≤ 7 | ≤ 7 | ≤ 7 | ≤ 7 | – |
| CCOc1ccc2sc(S(C)(=O)=O)nc2c1S(=O)(=O)Nc1ccc(Br)cc1 | 11 | 10 | ≤ 7 | 9 | 9 | ≤ 7 | growth at 0.1 µM (HeLa [7]): 95.9%; growth at 1 µM (HeLa [8]): 73.7%; growth at 10 µM (HeLa [9]): -11.2%; growth at 100 µM (HeLa [10]): -82.3%; GI50 (HeLa [11]): 6.8 µM; LC50 (HeLa [11]): 74.5 µM; TGI (HeLa [11]): 40.6 µM; growth inhibition (GI) (HeLa [11]): Dose-dependent effect; Activity (HeLa [12]): Dose-dependent effect |
| CCOc1ccc2sc(S(C)(=O)=O)nc2c1 | 8 | ≤ 7 | ≤ 7 | ≤ 7 | ≤ 7 | ≤ 7 | – |
| CCOc1ccc2sc(S(C)(=O)=O)nc2c1S(=O)(=O)NC1CC1 | ≤ 7 | ≤ 7 | ≤ 7 | ≤ 7 | ≤ 7 | ≤ 7 | – |
| CS(=O)(=O)c1nc2cc(O)ccc2s1 | ≤ 7 | ≤ 7 | ≤ 7 | ≤ 7 | ≤ 7 | ≤ 7 | – |
| CCOc1ccc2sc(S(C)(=O)=O)nc2c1[N+](=O)[O-] | 8 | ≤ 7 | ≤ 7 | ≤ 7 | ≤ 7 | ≤ 7 | – |
| CCOc1ccc2sc(Cl)nc2c1 | ≤ 7 | ≤ 7 | ≤ 7 | ≤ 7 | ≤ 7 | ≤ 7 | – |
| CCCNS(=O)(=O)c1c(OCC)ccc2sc(S(C)(=O)=O)nc12 | ≤ 7 | ≤ 7 | ≤ 7 | ≤ 7 | ≤ 7 | ≤ 7 | – |
| GENTAMICIN | – | – | – | – | – | – | MIC (Escherichia coli [13]): 1 µg/mL; MIC (Escherichia coli [14]): 1 µg/mL; MIC (Pseudomonas aeruginosa): 2 µg/mL |
| CCOc1ccc2sc(S(C)(=O)=O)nc2c1S(=O)(=O)NC(C)(C)C | 13 | 10 | ≤ 7 | ≤ 7 | 9 | ≤ 7 | MIC (Staphylococcus aureus [15]): 8 µg/mL (≈ 20.4 µM); MIC (Staphylococcus aureus [16]): 10 µg/mL (≈ 25.5 µM); MIC (Staphylococcus aureus [17]): 10 µg/mL (≈ 25.5 µM); MIC [18]: 10 µg/mL (≈ 25.5 µM); MIC (Escherichia coli [13]): 20 µg/mL (≈ 51 µM); MIC (Escherichia coli [14]): 20 µg/mL (≈ 51 µM); MIC (Pseudomonas aeruginosa): 50 µg/mL (≈ 127 µM); growth at 0.1 µM (HeLa [7]): 97.9%; growth at 1 µM (HeLa [8]): 42.1%; growth at 10 µM (HeLa [9]): -6.7%; growth at 100 µM (HeLa [10]): -76.3%; GI50 (HeLa [11]): 0.6 µM; LC50 (HeLa [11]): 76.6 µM; TGI (HeLa [11]): 38.6 µM; growth inhibition (GI) (HeLa [11]): Dose-dependent effect; Activity (HeLa [12]): Dose-dependent effect |
| CCOc1ccc2sc(S(C)(=O)=O)nc2c1S(=O)(=O)Nc1ccc(Cl)c(Cl)c1 | ≤ 7 | ≤ 7 | ≤ 7 | ≤ 7 | ≤ 7 | ≤ 7 | – |
| COc1cccc2c1C(=O)c1c(O)c3c(c(O)c1C2=O)C[C@@](O)(C(=O)CO)C[C@@H]3O[C@H]1C[C@H](N)[C@H](O)[C@H](C)O1 [DOXORUBICIN HYDROCHLORIDE] | – | – | – | – | – | – | growth at 0.1 µM (HeLa [7]): -76.8%; growth at 1 µM (HeLa [8]): -82.9%; growth at 10 µM (HeLa [9]): -84.1%; growth at 100 µM (HeLa [10]): -84.6%; GI50 (HeLa [11]): < 0.1 µM; TGI (HeLa [11]): < 0.1 µM |
| CC(=O)NC[C@H]1CN(c2ccc(N3CCOCC3)c(F)c2)C(=O)O1 [LINEZOLID] | – | – | – | – | – | – | MIC (Staphylococcus aureus [15]): 1 µg/mL (≈ 2.96 µM); MIC [18]: 1 µg/mL (≈ 2.96 µM) |
| CCOc1ccc2sc(S(C)(=O)=O)nc2c1S(=O)(=O)NC(C)C | ≤ 7 | ≤ 7 | ≤ 7 | ≤ 7 | ≤ 7 | ≤ 7 | – |
| CCOc1ccc2sc(S(C)(=O)=O)nc2c1NC(=O)CNCN1CCN(C(=O)OC(C)(C)C)CC1 | 8 | ≤ 7 | ≤ 7 | ≤ 7 | ≤ 7 | ≤ 7 | – |
| CCOc1ccc2sc(S(C)(=O)=O)nc2c1S(=O)(=O)Cl | ≤ 7 | ≤ 7 | ≤ 7 | ≤ 7 | ≤ 7 | ≤ 7 | – |
| CCOc1ccc2sc(S(C)(=O)=O)nc2c1S(=O)(=O)O | ≤ 7 | ≤ 7 | 9 | ≤ 7 | ≤ 7 | ≤ 7 | – |
| CS(=O)(=O)c1nc2cc(OCc3ccc(-c4ccccc4)cc3)ccc2s1 | ≤ 7 | ≤ 7 | ≤ 7 | ≤ 7 | ≤ 7 | ≤ 7 | – |
| CCOc1ccc2sc(S(C)(=O)=O)nc2c1NC(=O)CN1CCOCC1 | ≤ 7 | ≤ 7 | ≤ 7 | 9 | ≤ 7 | ≤ 7 | – |
| CCOc1ccc2sc(S(C)(=O)=O)nc2c1NC(=O)CNC(C)C | ≤ 7 | ≤ 7 | ≤ 7 | ≤ 7 | ≤ 7 | ≤ 7 | – |
| CCOc1ccc2sc(S(C)(=O)=O)nc2c1S(=O)(=O)NC(CC)CC | 21 | 10 | ≤ 7 | 13 | 9 | ≤ 7 | MIC (Staphylococcus aureus [15]): 50 µg/mL (≈ 123 µM); MIC (Staphylococcus aureus [16]): 100 µg/mL (≈ 246 µM); MIC (Staphylococcus aureus [17]): 100 µg/mL (≈ 246 µM); MIC [18]: 50 µg/mL (≈ 123 µM); MIC (Escherichia coli [13]): 50 µg/mL (≈ 123 µM); MIC (Escherichia coli [14]): 50 µg/mL (≈ 123 µM); MIC (Pseudomonas aeruginosa): 100 µg/mL (≈ 246 µM); growth at 0.1 µM (HeLa [7]): 91.8%; growth at 1 µM (HeLa [8]): 89.4%; growth at 10 µM (HeLa [9]): 35.6%; growth at 100 µM (HeLa [10]): -65.8%; GI50 (HeLa [11]): 19.5 µM; LC50 (HeLa [11]): 87.4 µM; TGI (HeLa [11]): 53.5 µM; growth inhibition (GI) (HeLa [11]): Dose-dependent effect; Activity (HeLa [12]): Dose-dependent effect |
| CCOc1ccc2sc(S(C)(=O)=O)nc2c1S(=O)(=O)NCc1ccccc1 | ≤ 7 | ≤ 7 | 9 | ≤ 7 | ≤ 7 | ≤ 7 | – |
| CS(=O)(=O)c1nc2cc(OCc3ccccc3)ccc2s1 | ≤ 7 | ≤ 7 | ≤ 7 | 8 | ≤ 7 | ≤ 7 | – |
| CCNS(=O)(=O)c1c(OCC)ccc2sc(S(C)(=O)=O)nc12 | ≤ 7 | ≤ 7 | ≤ 7 | ≤ 7 | ≤ 7 | ≤ 7 | – |
| O=C(O)c1cn(C2CC2)c2cc(N3CCNCC3)c(F)cc2c1=O [CIPROFLOXACIN] | – | – | – | – | – | – | MIC (Staphylococcus aureus [15]): 8 µg/mL (≈ 24.1 µM); MIC [18]: 8 µg/mL (≈ 24.1 µM) |
